Test results taken from patent US4039540A, “3-Substituted quinoxaline-2-carboxamide-1,4-dioxides” (Pfizer Inc., priority 1975, dated 1977).
In brackets after ≈: the same amount, converted by molar mass. Read-outs that look alike come from different tables or passages of the source.

Key:
[1] = system: E. coli; experiment: in vitro antibacterial activity, two-fold serial dilution in Brain-Heart Infusion Broth (MIC); type: cell-based; conditions: Escherichia coli, overnight, anaerobic
Procedure: (§1) The broth is inoculated with bacteria and with the test quinoxaline-1,4-dioxide and then it is incubated overnight under anerobic conditions. On the next day, the test is read visually. The minimum inhibitory concentration (MIC) of test compound is the lowest concentration which prevents turbidity, i.e., which prevents growth of the microorganism.
(§2) In vitro and in vivo activity of representative compounds of this invention, determined as aforesaid, are reported in the following tabulation for compounds of the formula: [drawing 12]

[2] = system: Strep. pyrogens; experiment: as above; type: cell-based; conditions: overnight, anaerobic
Procedure: as §1, §2

[3] = system: Strep. pyogenes; experiment: in vivo activity in mice infected with a lethal inoculum of Strep. pyogenes; conditions: Streptococcus pyogenes, multiple dosing
Procedure: (§3) In determining the in vivo activity of the quinoxaline-1,4-dioxides of this invention, the test compound is administered to mice which have been infected by […] injection of a lethal inoculum of pathogenic bacteria. The test compound is administered using a multiple dosing regimen and using either the oral (PO) or the subcutaneous (SC) route. The inoculum of bacteria varies from about 1 to about 10 times the amount needed to kill 100% of the mice under the conditions of the test. At the end of the test, the activity of the compound is assessed by counting the number of survivors among the treated animals.
as §2

[4] = system: E. coli; experiment: in vivo activity in mice infected with a lethal inoculum of E. coli; conditions: Escherichia coli, sc, subcutaneous, multiple dosing, read-out: IN VIVO E. coli, number of survivors among the treated animals
Procedure: as §3, §2

[5] = oral, read-out: IN VIVO Strep. pyogenes, number of survivors among the treated animals, PO (data in parenthesis)
[6] = sc, subcutaneous, read-out: IN VIVO Strep. pyogenes, number of survivors among the treated animals

Row | Structure (SMILES) | MIC [1] | MIC [2] | responders at 50 mg/kg [3, 5] | responders at 50 mg/kg [3, 6] | responders at 25 mg/kg [4]
1 | CCN(CC)CCCS(=O)(=O)Cc1c(C(=O)N(C)C)[n+]([O-])c2ccccc2[n+]1[O-] [N(CH3)2; SO2 (CH2)3 N(CH2 CH3)2; H] | 25 µg/mL (≈ 58.9 µM) | 6.25 µg/mL (≈ 14.7 µM) | 10% | 60% | 0%
2 | CN(C)CCCS(=O)(=O)Cc1c(C(=O)N(C)C)[n+]([O-])c2ccccc2[n+]1[O-] [N(CH3)2; SO2 (CH2)3 N(CH3)2; H] | 3.12 µg/mL (≈ 7.88 µM) | 3.12 µg/mL (≈ 7.88 µM) | 60% | 100% | 100%
3 | CN(C)C(=O)c1c(CS(=O)(=O)CCCN2CCCC2)[n+]([O-])c2ccccc2[n+]1[O-] [N(CH3)2; drawing 15; H] | 6.25 µg/mL (≈ 14.8 µM) | 3.12 µg/mL (≈ 7.4 µM) | – | – | 80%
4 | CN(C)C(=O)c1c(CS(=O)(=O)CCCN2CCOCC2)[n+]([O-])c2ccccc2[n+]1[O-] [N(CH3)2; drawing 19; H] | 25 µg/mL (≈ 57 µM) | 25 µg/mL (≈ 57 µM) | 10% | 0% | 20%
5 | CN(C)C(=O)c1c(CS(=O)(=O)CCCN2CCCCC2)[n+]([O-])c2ccccc2[n+]1[O-] [N(CH3)2; drawing 27; H] | 3.12 µg/mL (≈ 7.16 µM) | 3.12 µg/mL (≈ 7.16 µM) | 100% | 100% | 90%
6 | CCN(CC)CCCS(=O)(=O)Cc1c(C(N)=O)[n+]([O-])c2ccccc2[n+]1[O-] [NH2; SO2 (CH2)3 N(CH2 CH3)2; H] | 6.25 µg/mL (≈ 15.8 µM) | 3.12 µg/mL (≈ 7.88 µM) | 50% | 90% | 80%
7 | CN(C)CCCS(=O)(=O)Cc1c(C(N)=O)[n+]([O-])c2ccccc2[n+]1[O-] [NH2; SO2 (CH2)3 N(CH3)2; H] | 25 µg/mL (≈ 67.9 µM) | 1.56 µg/mL (≈ 4.24 µM) | 20% | 100% | 50%
8 | NC(=O)c1c(CS(=O)(=O)CCO)[n+]([O-])c2ccccc2[n+]1[O-] [NH2; SO2 CH2 CH2 OH; H] | 12.5 µg/mL (≈ 38.2 µM) | 6.25 µg/mL (≈ 19.1 µM) | 80% | 40% | 0%
9 | NC(=O)c1c(CS(=O)(=O)CCCN2CCCC2)[n+]([O-])c2ccccc2[n+]1[O-] [NH2; drawing 14; H] | 12.5 µg/mL (≈ 31.7 µM) | 6.25 µg/mL (≈ 15.8 µM) | – | – | 50%
10 | NC(=O)c1c(CS(=O)(=O)CCCN2CCOCC2)[n+]([O-])c2ccccc2[n+]1[O-] [NH2; drawing 20; H] | 12.5 µg/mL (≈ 30.5 µM) | 12.5 µg/mL (≈ 30.5 µM) | 60% | 100% | 20%
11 | NC(=O)c1c(CS(=O)(=O)CCCN2CCCCC2)[n+]([O-])c2ccccc2[n+]1[O-] [NH2; drawing 24; H] | 6.25 µg/mL (≈ 15.3 µM) | 6.25 µg/mL (≈ 15.3 µM) | 40% | 100% | 100%
12 | CCCCNC(=O)c1c(CS(=O)(=O)CCCN(C)C)[n+]([O-])c2ccccc2[n+]1[O-] [NH(CH2)3 CH3; SO2 (CH2)3 N(CH3)2; H] | 25 µg/mL (≈ 58.9 µM) | 25 µg/mL (≈ 58.9 µM) | 80% | 100% | 50%
13 | CCN(CC)CCCNC(=O)c1c(CS(=O)(=O)CCO)[n+]([O-])c2ccccc2[n+]1[O-] [NH(CH2)3 N(Et)2; SO2 CH2 CH2 OH; H] | > 200 µg/mL | 200 µg/mL (≈ 454 µM) | – | 10% | 50%
14 | O=C(NCCCCc1ccccc1)c1c(CS(=O)(=O)CCO)[n+]([O-])c2ccccc2[n+]1[O-] [NH(CH2)4 .phi.; SO2 CH2 CH2 OH; H] | > 200 µg/mL | 3.12 µg/mL (≈ 6.8 µM) | 10% | 10% | 20%
15 | CCCCNC(=O)c1c(CSCCO)[n+]([O-])c2ccccc2[n+]1[O-] [NHBu; SCH2 CH2 OH; H] | 50 µg/mL (≈ 142 µM) | 50 µg/mL (≈ 142 µM) | 10% | 20% | 0%
16 | CCCCNC(=O)c1c(CS(=O)(=O)CCO)[n+]([O-])c2ccccc2[n+]1[O-] [NHBu; SO2 CH2 CH2 OH; H] | 25 µg/mL (≈ 65.2 µM) | 1.56 µg/mL (≈ 4.07 µM) | 40% | 0% | 40%
17 | O=C(NCc1ccccc1)c1c(CS(=O)(=O)CCO)[n+]([O-])c2ccccc2[n+]1[O-] [NHCH2 .phi.; SO2 CH2 CH2 OH; H] | 200 µg/mL (≈ 479 µM) | 0.781 µg/mL (≈ 1.87 µM) | 20% | 20% | 20%

Row | Structure (SMILES) | MIC [1] | MIC [2] | responders at 50 mg/kg [3, 5] | responders at 50 mg/kg [3, 6] | responders at 25 mg/kg [4]
18 | O=C(NCCCO)c1c(CSCCO)[n+]([O-])c2ccccc2[n+]1[O-] [NHCH2 CH2 CH2 OH; SCH2 CH2 OH; H] | 50 µg/mL (≈ 141 µM) | 25 µg/mL (≈ 70.7 µM) | 30% | 10% | 20%
19 | O=C(NCCCO)c1c(CS(=O)(=O)CCO)[n+]([O-])c2ccccc2[n+]1[O-] [NHCH2 CH2 CH2 OH; SO2 CH2 CH2 OH; H] | 100 µg/mL (≈ 259 µM) | 12.5 µg/mL (≈ 32.4 µM) | 50% | 40% | 0%
20 | CCCNC(=O)c1c(CS(=O)(=O)CCCN(C)C)[n+]([O-])c2ccccc2[n+]1[O-] [NHCH2 CH2 CH3; SO2 (CH2)3 N(CH3)2; H] | 25 µg/mL (≈ 60.9 µM) | 25 µg/mL (≈ 60.9 µM) | 80% | 100% | 20%
21 | CCCNC(=O)c1c(CS(=O)(=O)CCCOC(C)=O)[n+]([O-])c2ccccc2[n+]1[O-] [NHCH2 CH2 CH3; SO2 CH2 CH2 CH2 OAc; H] | 200 µg/mL (≈ 470 µM) | 50 µg/mL (≈ 118 µM) | 0% | 30% | 0%
22 | CN(C)CCNC(=O)c1c(CS(=O)(=O)CCO)[n+]([O-])c2ccccc2[n+]1[O-] [NHCH2 CH2 N(CH3)2; SO2 CH2 CH2 OH; H] | 50 µg/mL (≈ 125 µM) | 100 µg/mL (≈ 251 µM) | – | 20% | 0%
23 | CN(C)CCNC(=O)c1c(CS(=O)(=O)CCCN2CCCCC2)[n+]([O-])c2ccccc2[n+]1[O-] [NHCH2 CH2 N(CH3)2; drawing 21; H] | 100 µg/mL (≈ 209 µM) | 50 µg/mL (≈ 104 µM) | – | – | 40%
24 | COCCNC(=O)c1c(CS(=O)(=O)CCCN(C)C)[n+]([O-])c2ccccc2[n+]1[O-] [NHCH2 CH2 OCH3; SO2 (CH2)3 N(CH3)2; H] | 50 µg/mL (≈ 117 µM) | 1.56 µg/mL (≈ 3.66 µM) | 50% | 100% | 10%
25 | COCCNC(=O)c1c(CS(=O)(=O)CCCOC(C)=O)[n+]([O-])c2ccccc2[n+]1[O-] [NHCH2 CH2 OCH3; SO2 CH2 CH2 CH2 OAc; H] | 100 µg/mL (≈ 227 µM) | 12.5 µg/mL (≈ 28.3 µM) | 10% | 20% | 10%
26 | COCCNC(=O)c1c(CS(=O)(=O)CCO)[n+]([O-])c2ccccc2[n+]1[O-] [NHCH2 CH2 OCH3; SO2 CH2 CH2 OH; H] | 12.5 µg/mL (≈ 32.4 µM) | 0.781 µg/mL (≈ 2.03 µM) | 0% | 40% | 0%
27 | COCCNC(=O)c1c(CS(=O)(=O)CCCN2CCCCC2)[n+]([O-])c2ccccc2[n+]1[O-] [NHCH2 CH2 OCH3; drawing 25; H] | 50 µg/mL (≈ 107 µM) | 1.56 µg/mL (≈ 3.35 µM) | 100% | 100% | 20%
28 | CC(=O)OCCCSCc1c(C(=O)NCCO)[n+]([O-])c2ccccc2[n+]1[O-] [NHCH2 CH2 OH; S(CH2)3 OAc; H] | 100 µg/mL (≈ 253 µM) | 6.25 µg/mL (≈ 15.8 µM) | 30% | 10% | 30%
29 | O=C(NCCO)c1c(CSCCO)[n+]([O-])c2ccccc2[n+]1[O-] [NHCH2 CH2 OH; SCH2 CH2 OH; H] | 50 µg/mL (≈ 147 µM) | 12.5 µg/mL (≈ 36.8 µM) | 50% | 30% | 0%
30 | CN(C)CCCS(=O)(=O)Cc1c(C(=O)NCCO)[n+]([O-])c2ccccc2[n+]1[O-] [NHCH2 CH2 OH; SO2 (CH2)3 N(CH3)2; H] | 50 µg/mL (≈ 121 µM) | 50 µg/mL (≈ 121 µM) | 0% | 60% | 0%
31 | CCNC(=O)c1c(CS(=O)(=O)CCCCN(C)C)[n+]([O-])c2ccccc2[n+]1[O-] [NHCH2 CH3; SO2 (CH2)4 N(CH3)2; H] | 50 µg/mL (≈ 122 µM) | 12.5 µg/mL (≈ 30.5 µM) | – | – | 20%
32 | CCNC(=O)c1c(CS(=O)(=O)CCCN2CCCC2)[n+]([O-])c2ccccc2[n+]1[O-] [NHCH2 CH3; drawing 16; H] | 50 µg/mL (≈ 118 µM) | 12.5 µg/mL (≈ 29.6 µM) | – | – | 60%
33 | CNC(=O)c1c(CS(=O)(=O)CCCCN(C)C)[n+]([O-])c2ccccc2[n+]1[O-] [NHCH3; SO2 (CH2)4 N(CH3)2; H] | 50 µg/mL (≈ 126 µM) | 50 µg/mL (≈ 126 µM) | – | – | 40%
34 | CNC(=O)c1c(CS(=O)(=O)CCCN2CCCC2)[n+]([O-])c2ccccc2[n+]1[O-] [NHCH3; drawing 13; H] | 6.25 µg/mL (≈ 15.3 µM) | 3.12 µg/mL (≈ 7.65 µM) | – | – | 80%
